Where two headings read alike, the source gives them in different places. d = 2'-deoxy (DNA); r = 2'-OH (RNA)
Legend:
CHOP::GFP reporter = CHOP::GFP reporter expression by FACS in CHOP::GFP CHO cells; type: cell-based, Chinese Hamster
HT22 cells = assay: HT22 cell survival (MTT) after toxic glutamate exposure; type: cell-based; details: HT22 cells preconditioned (70 μM 22P19 for 24 or 48 h, or siRNA transfection), then 5 mM or 10 mM glutamate for 18 hours
Experimental: FIG. 6: Inhibition of endogenous GADD34L protects cells against oxidative toxicity. The bar graphs show percent survival of HT22 cells following exposure to toxic amounts of glutamate. HT22 cells were treated with 70 μM 22P19 for 24 or 48 h (top panel), or left untransfected (NTx), mock transfected, transfected with GADD34L siRNA, or transfected with control or CD2 siRNA (bottom panel), and then exposed to the indicated concentrations of glutamate for 18 hours.
In order to determine whether this preconditioning is protective against subsequent cell stress, cell survival rates of HT22 cells following toxic glutamate exposure were measured, where those HT22 cells had been preconditioned by 22P19- or RNAi-mediated inhibition of GADD34L (see FIG. 6).
For this assay, HT22 cells were either treated with 70 μM 22P19 for 24 or 48 h, or transfected with GADD34L siRNA or control CD2 siRNA, and then exposed to 0 mM, 5 mM, or 10 mM glutamate for 18 hours.

[1] = system: CHOP protein and phosphorylated eIF2α in CHO cells; type: cell-based, Chinese Hamster
[2] = parental CHO cells, 1.75 μg/mL tunicamycin or 50 μM arsenite

With “GADD34L siRNA: complementary double stranded RNA oligonucleotides (SEQ ID NO: 9 and 10) targeting GADD34L mRNA, purchased from Dharmacon (chain 1 GGGAUGGAUGCAGGUUCCATT; chain 2 UGGAACCUGCAUCCAUCCCTT; sugars from the 5' end r19 d2, backbone not given here)” the “CHOP::GFP expression in cells not subject to stress” value (CHOP::GFP reporter; CHO CHOP::GFP cells harvested 16, 24 or 44 hours after transfection) was “activates CHOP::GFP expression” and the “cell survival following glutamate treatment” value (HT22 cells) was “substantially improved cell survival”.

In the case of arsenite, the CHOP protein level [1] is reported as “strong induction of CHOP protein”, the “phosphorylated eIF2α level” value [1] is reported as “increase in phosphorylated eIF2α levels” and the “CHOP::GFP reporter expression” value (CHOP::GFP reporter) is reported as “substantially activated”.

For tunicamycin, the CHOP protein level [1, 2] was “strong induction of CHOP protein”, the “phosphorylated eIF2α level” value [1, 2] was “increase in phosphorylated eIF2α levels” and the “CHOP::GFP reporter expression” value (CHOP::GFP reporter; parental CHO cells, 8 hours, 1.75 μg/mL tunicamycin or 50 μM arsenite) was “substantially activated”.

From patent publication US7097996B2, “Methods of screening test compounds using GADD34L, an eIF2α-specific phosphatase subunit” (New York University, priority 2002, dated 2006)
